Among the targets are Histone deacetylase 1 (Homo sapiens, UniProt Q13547); Histone deacetylase 3 (Homo sapiens, UniProt O15379); Histone deacetylase 4 (Homo sapiens, UniProt P56524).
For assay [1], the target named is T1, Protein deacetylase HDAC6 (Homo sapiens, UniProt Q9UBN7).
T1 sequence (Q9UBN7 whole entry): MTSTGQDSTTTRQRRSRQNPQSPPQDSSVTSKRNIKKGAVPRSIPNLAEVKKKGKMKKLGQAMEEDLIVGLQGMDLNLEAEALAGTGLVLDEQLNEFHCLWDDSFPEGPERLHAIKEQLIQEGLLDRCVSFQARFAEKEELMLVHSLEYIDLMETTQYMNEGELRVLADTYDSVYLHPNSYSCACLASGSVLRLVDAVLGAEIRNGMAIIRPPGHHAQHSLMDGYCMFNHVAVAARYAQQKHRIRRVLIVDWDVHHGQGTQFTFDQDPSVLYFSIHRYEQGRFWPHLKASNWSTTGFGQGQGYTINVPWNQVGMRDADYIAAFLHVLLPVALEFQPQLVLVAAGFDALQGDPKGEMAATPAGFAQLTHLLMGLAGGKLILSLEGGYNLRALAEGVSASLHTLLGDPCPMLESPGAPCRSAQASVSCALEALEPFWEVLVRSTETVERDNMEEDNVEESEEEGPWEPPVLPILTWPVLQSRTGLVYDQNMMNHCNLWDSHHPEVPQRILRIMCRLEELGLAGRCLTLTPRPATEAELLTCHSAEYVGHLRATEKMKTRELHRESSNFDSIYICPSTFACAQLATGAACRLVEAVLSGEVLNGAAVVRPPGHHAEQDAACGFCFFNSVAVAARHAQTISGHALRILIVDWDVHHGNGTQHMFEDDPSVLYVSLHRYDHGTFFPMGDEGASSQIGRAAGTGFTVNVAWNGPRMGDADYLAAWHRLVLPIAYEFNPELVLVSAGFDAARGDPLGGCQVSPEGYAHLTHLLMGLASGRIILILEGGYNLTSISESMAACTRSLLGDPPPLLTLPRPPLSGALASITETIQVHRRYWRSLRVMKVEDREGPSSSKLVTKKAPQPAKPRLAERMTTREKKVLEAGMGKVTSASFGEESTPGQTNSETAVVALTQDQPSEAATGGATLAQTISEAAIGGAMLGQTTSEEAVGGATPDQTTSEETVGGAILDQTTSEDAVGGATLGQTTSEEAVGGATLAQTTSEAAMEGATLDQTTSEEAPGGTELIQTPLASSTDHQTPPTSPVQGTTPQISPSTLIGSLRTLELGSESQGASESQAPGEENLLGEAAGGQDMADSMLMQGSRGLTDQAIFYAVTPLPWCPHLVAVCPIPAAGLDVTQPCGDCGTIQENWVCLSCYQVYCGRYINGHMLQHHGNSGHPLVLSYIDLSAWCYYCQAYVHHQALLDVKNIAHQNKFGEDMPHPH

Assay [2] has as its target T2, Histone deacetylase 8 (Homo sapiens, UniProt Q9BY41).
T2 sequence (Q9BY41 whole entry): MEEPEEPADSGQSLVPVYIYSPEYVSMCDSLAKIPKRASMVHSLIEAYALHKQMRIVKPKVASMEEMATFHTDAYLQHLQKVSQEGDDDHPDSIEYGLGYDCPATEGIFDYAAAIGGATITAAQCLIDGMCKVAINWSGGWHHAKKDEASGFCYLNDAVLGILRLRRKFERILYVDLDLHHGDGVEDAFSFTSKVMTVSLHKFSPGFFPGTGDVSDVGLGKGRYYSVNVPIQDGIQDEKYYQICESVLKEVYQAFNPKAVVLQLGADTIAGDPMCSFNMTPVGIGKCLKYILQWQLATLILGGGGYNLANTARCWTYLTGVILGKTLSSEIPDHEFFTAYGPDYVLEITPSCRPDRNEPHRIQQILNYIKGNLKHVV

The test system of a further assay is HCT-116. In words: cells. The assay is classed as functional, cell-based. The conditions noted are these: Homo sapiens, HCT-116, 72 h.
A further assay concerns A549. As to the kind of experiment: cells. The assay is classed as functional, cell-based. The conditions noted are these: Homo sapiens, A549, 72 h.
The subject of another assay is K562. As to the kind of experiment: cells. The conditions noted are these: Homo sapiens, K562, 72 h. The assay is classed as functional, cell-based.
Assay [3] has as its target T2, Histone deacetylase 8. The source holds these as a separate data set.
Assay [4] relates to U-937. As to the kind of experiment: Induction of cell cycle arrest in human U-937 cells assessed as accumulation of cells in pre-G1 phase at 5 uM for 24 hrs by PI staining based flow cytometric analysis. The assay is classed as functional. In general terms: A flow cytometer gives signals particle by particle.
The subject of assay [5] is U-937. As to the kind of experiment: Induction of cell cycle arrest in human U-937 cells assessed as accumulation of cells in G1 phase at 1 to 5 uM for 48 hrs by PI staining based flow cytometric analysis. As to conditions: dose 1-5 µM; call rule not given here. The assay is classed as functional.

Histone deacetylase 1, sequence (Q13547 whole entry): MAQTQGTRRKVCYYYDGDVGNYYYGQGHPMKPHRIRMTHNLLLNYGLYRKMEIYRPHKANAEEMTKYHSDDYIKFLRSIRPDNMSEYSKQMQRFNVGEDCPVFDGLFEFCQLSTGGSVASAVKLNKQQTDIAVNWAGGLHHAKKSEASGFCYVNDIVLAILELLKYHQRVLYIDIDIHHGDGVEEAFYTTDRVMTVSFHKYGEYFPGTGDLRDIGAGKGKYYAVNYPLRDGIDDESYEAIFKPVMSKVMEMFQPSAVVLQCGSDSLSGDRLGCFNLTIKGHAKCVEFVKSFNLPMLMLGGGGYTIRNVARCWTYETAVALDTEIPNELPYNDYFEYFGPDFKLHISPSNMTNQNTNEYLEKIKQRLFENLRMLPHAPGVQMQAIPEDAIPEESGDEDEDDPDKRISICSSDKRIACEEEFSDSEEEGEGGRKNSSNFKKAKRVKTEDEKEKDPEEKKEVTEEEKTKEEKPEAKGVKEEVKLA
Histone deacetylase 4, sequence (P56524 whole entry): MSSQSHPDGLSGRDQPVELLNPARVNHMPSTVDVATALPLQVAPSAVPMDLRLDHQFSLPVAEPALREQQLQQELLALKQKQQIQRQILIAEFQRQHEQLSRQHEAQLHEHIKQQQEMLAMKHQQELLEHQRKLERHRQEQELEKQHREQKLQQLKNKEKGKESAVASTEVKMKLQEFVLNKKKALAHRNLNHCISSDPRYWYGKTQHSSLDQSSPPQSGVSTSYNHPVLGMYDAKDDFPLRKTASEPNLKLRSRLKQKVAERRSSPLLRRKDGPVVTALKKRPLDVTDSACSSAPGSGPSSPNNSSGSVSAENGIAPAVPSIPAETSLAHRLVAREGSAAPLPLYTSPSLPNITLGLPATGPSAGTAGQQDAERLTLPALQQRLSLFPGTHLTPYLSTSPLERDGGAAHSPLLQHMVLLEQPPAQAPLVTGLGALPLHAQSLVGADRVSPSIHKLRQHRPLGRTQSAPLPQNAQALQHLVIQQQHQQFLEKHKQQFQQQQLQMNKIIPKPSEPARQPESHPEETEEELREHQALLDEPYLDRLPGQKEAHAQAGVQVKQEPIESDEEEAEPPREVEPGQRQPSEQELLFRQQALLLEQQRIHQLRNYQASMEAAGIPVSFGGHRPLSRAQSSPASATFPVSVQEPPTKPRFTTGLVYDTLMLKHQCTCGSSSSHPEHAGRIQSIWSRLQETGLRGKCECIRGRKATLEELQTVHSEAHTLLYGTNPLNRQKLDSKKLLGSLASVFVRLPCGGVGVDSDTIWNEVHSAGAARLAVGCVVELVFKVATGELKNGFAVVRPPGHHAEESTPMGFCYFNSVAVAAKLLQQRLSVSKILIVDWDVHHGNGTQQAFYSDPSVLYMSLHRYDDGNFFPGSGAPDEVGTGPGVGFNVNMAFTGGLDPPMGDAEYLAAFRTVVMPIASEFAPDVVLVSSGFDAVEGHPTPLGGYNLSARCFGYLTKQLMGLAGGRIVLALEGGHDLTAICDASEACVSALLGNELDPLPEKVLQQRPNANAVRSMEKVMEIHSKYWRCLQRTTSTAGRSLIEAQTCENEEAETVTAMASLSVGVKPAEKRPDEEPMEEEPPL
Histone deacetylase 3, sequence (O15379 whole entry): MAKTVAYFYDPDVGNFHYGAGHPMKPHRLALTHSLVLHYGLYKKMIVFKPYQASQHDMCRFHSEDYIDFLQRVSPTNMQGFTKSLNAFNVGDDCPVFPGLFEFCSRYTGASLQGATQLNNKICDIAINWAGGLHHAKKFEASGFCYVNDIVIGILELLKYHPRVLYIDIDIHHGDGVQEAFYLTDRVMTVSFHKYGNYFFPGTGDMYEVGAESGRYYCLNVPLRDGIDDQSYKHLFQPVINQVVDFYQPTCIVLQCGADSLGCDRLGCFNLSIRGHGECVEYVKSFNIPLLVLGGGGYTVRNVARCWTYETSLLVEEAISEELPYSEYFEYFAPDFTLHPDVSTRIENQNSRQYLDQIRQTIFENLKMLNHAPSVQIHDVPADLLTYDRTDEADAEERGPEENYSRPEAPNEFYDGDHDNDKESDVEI

By IC50 is commonly meant the concentration at which inhibition is half-maximal. Turning to `O=C(Cc1ccccc1)Nc1ccc(C(=O)NO)nc1`, the IC50 came out at 3000 nM against Histone deacetylase 1; 2060 nM against Histone deacetylase 3; 82400 nM at Histone deacetylase 4 (read-out: IC50); 174 nM in assay [1] (read-out: IC50); 1090 nM on Histone deacetylase 8 [2].
Taken in the same sequence, the figures for `O=C(Cc1cccc2ccccc12)Nc1ccc(C(=O)NO)nc1` were 2850 nM, 1390 nM, 30700 nM, 58 nM and 1810 nM.
As for `Nc1ccccc1NC(=O)/C=C/c1ccc(NC(=O)Cc2ccccc2)cn1`, the IC50 at Histone deacetylase 1 was 108 nM; against Histone deacetylase 3, 224 nM; at Histone deacetylase 4, “Not Active”; in assay [1], “Not Active”; against Histone deacetylase 8 [2], 31400 nM.
On to `CC(C)C(C(=O)Nc1ccc(/C=C/C(=O)Nc2ccccc2N)nc1)c1ccccc1` (stereo not given), for which the IC50 at Histone deacetylase 1 is 151 nM; against Histone deacetylase 3 it was 319 nM; against Histone deacetylase 4, “Not Active”; in assay [1] it was “Not Active”; in the assay with HCT-116, 4380 nM; with A549 it was 5690 nM. The IC50 in the assay with K562 was 2890 nM; against Histone deacetylase 8 [2] it was 43100 nM.
Consider `CC(C)C(C(=O)Nc1ccc(C(=O)Nc2ccccc2N)nc1)c1ccccc1` (stereo not given), for which the IC50 against Histone deacetylase 1 was 330 nM; on Histone deacetylase 3 it was 488 nM; against Histone deacetylase 4, “Not Active”; in [1], “Not Active”; against Histone deacetylase 8 [2], 75200 nM.
As to `CC(C)C(C(=O)Nc1ccc(/C=C/C(=O)NO)nc1)c1ccccc1` (stereo not given), the IC50 against Histone deacetylase 1 turned out to be 81 nM; against Histone deacetylase 3, 28 nM; at Histone deacetylase 4 (read-out: IC50), 16000 nM; in assay [1] (read-out: IC50) it was 10 nM; with HCT-116, 260 nM; in the assay with A549, 590 nM. Further, the values for the IC50 in the assay with K562 and on Histone deacetylase 8 [2] were 180 nM and 168 nM, respectively.
For `O=C(/C=C/c1ccc(NC(=O)Cc2ccc3ccccc3c2)cn1)NO`, the half-inhibitory concentration (IC50) came out at 376 nM against Histone deacetylase 1; 168 nM against Histone deacetylase 3; 17600 nM at Histone deacetylase 4 (read-out: IC50); 112 nM in assay [1] (read-out: IC50); 210 nM in the assay with HCT-116; 600 nM in the assay on A549. The figures for the IC50 in the assay with K562 and at Histone deacetylase 8 [2] were 130 nM and 1010 nM, respectively.
For `CCC(C(=O)Nc1ccc(/C=C/C(=O)NO)nc1)c1ccccc1` (stereo not given), the IC50 on Histone deacetylase 1 is 77 nM; at Histone deacetylase 3, 36 nM; at Histone deacetylase 4 (read-out: IC50), 17100 nM; in [1] (read-out: IC50), 11 nM; on Histone deacetylase 8 [2], 104 nM.
On to `Nc1ccccc1NC(=O)/C=C/c1ccc(NC(=O)Cc2cccc3ccccc23)cn1`, for which the IC50 against Histone deacetylase 1 was 63 nM; on Histone deacetylase 3, 264 nM; against Histone deacetylase 4 it was “Not Active”; in assay [1], “Not Active”; with HCT-116 it was 8280 nM; in the assay on A549, 9430 nM. Also, the results for the IC50 in the assay with K562 and on Histone deacetylase 8 [3] were 3140 nM and “Not Active”, respectively.
On to `O=C(NO)c1ccc(NC(=O)C(Cc2ccccc2)c2ccccc2)cn1` (stereo not given), for which the IC50 worked out at 783 nM against Histone deacetylase 1; 153 nM at Histone deacetylase 3; 39200 nM at Histone deacetylase 4 (read-out: IC50); 16 nM in [1] (read-out: IC50); 1050 nM in the assay with HCT-116; 2660 nM in the assay on A549. The IC50 in the assay with K562 amounted to 490 nM; on Histone deacetylase 8 [2], 1090 nM.
On to `CCC(C(=O)Nc1ccc(/C=C/C(=O)Nc2ccccc2N)nc1)c1ccccc1` (stereo not given), for which the IC50 against Histone deacetylase 1 is 143 nM; on Histone deacetylase 3, 268 nM; against Histone deacetylase 4, “Not Active”; in [1], “Not Active”; at Histone deacetylase 8 [2], 35600 nM.
With `Nc1ccccc1NC(=O)/C=C/c1ccc(NC(=O)Cc2ccc3ccccc3c2)cn1`, the IC50 is 203 nM against Histone deacetylase 1; 414 nM against Histone deacetylase 3; “Not Active” on Histone deacetylase 4; “Not Active” in [1]; 3230 nM in the assay with HCT-116; 7430 nM in the assay with A549. Also, the IC50 was 1700 nM in the assay on K562 and 77100 nM against Histone deacetylase 8 [2].
`CCC(C(=O)Nc1ccc(C(=O)NO)nc1)c1ccccc1` (stereo not given): the IC50 against Histone deacetylase 1 was found to be 1490 nM; at Histone deacetylase 3, 777 nM; on Histone deacetylase 4 (read-out: IC50), 77900 nM; in [1] (read-out: IC50), 51 nM; in the assay with HCT-116, 1680 nM; with A549 it was 5470 nM. Further, the IC50 in the assay on K562 amounted to 1780 nM; against Histone deacetylase 8 [2], 964 nM.
For `Nc1ccccc1NC(=O)c1ccc(NC(=O)Cc2ccccc2)cn1`, the IC50 is 201 nM against Histone deacetylase 1; 248 nM at Histone deacetylase 3; “Not Active” against Histone deacetylase 4; “Not Active” in assay [1]; 560 nM in the assay on HCT-116; 1350 nM with A549. Moreover, the IC50 stood at 540 nM in the assay with K562 and 77100 nM at Histone deacetylase 8 [2].
Take `Nc1ccccc1NC(=O)/C=C/c1ccc(NC(=O)C(Cc2ccccc2)c2ccccc2)cn1` (stereo not given): the IC50 on Histone deacetylase 1 is 496 nM; at Histone deacetylase 3, 603 nM; on Histone deacetylase 4 it was “Not Active”; in [1], “Not Active”; in the assay on HCT-116, 2740 nM; in the assay on A549, 4300 nM. Besides, the IC50 in the assay on K562 is 1860 nM; against Histone deacetylase 8 [3], “Not Active”.
In the case of `CC(C)C(C(=O)Nc1ccc(C(=O)NO)nc1)c1ccccc1` (stereo not given), the IC50 was determined as 1010 nM at Histone deacetylase 1; 681 nM against Histone deacetylase 3; 63200 nM at Histone deacetylase 4 (read-out: IC50); 41 nM in assay [1] (read-out: IC50); 1310 nM with HCT-116; 3750 nM in the assay on A549. For the same compound, the figures for the IC50 with K562 and on Histone deacetylase 8 [2] were 1040 nM and 882 nM, respectively.
With `O=C(Cc1ccc2ccccc2c1)Nc1ccc(C(=O)NO)nc1`, the IC50 against Histone deacetylase 1 is 94000 nM; against Histone deacetylase 3 it was 207 nM; at Histone deacetylase 4 (read-out: IC50), 15800 nM; in [1] (read-out: IC50) it was 123 nM; at Histone deacetylase 8 [2] it was 976 nM.
Consider `Nc1ccccc1NC(=O)c1ccc(NC(=O)Cc2cccc3ccccc23)cn1`, for which the IC50 against Histone deacetylase 1 was 129 nM; against Histone deacetylase 3 it was 289 nM; against Histone deacetylase 4 it was “Not Active”; in assay [1], “Not Active”; at Histone deacetylase 8 [2], 98400 nM.
Regarding `O=C(/C=C/c1ccc(NC(=O)Cc2ccccc2)cn1)NO`, the IC50 at Histone deacetylase 1 was determined as 68 nM; against Histone deacetylase 3, 78 nM; at Histone deacetylase 4 (read-out: IC50), 19300 nM; in assay [1] (read-out: IC50), 13 nM; in the assay with HCT-116, 880 nM; with A549, 2980 nM. The IC50 was 910 nM in the assay with K562 and 183 nM against Histone deacetylase 8 [2].
In the case of `CCC(C(=O)Nc1ccc(C(=O)Nc2ccccc2N)nc1)c1ccccc1` (stereo not given), the IC50 on Histone deacetylase 1 was 321 nM; against Histone deacetylase 3, 433 nM; against Histone deacetylase 4, “Not Active”; in assay [1] it was “Not Active”; against Histone deacetylase 8 [2], 66200 nM.
For the compound `O=C(CCCCCCC(=O)Nc1ccccc1)NO` [VORINOSTAT], the Activity in the assay on U-937 [4] was 10%; in the assay with U-937 [5], 70%.

Source of the values: ChEMBL document CHEMBL5352478, “Novel pyridine-containing histone deacetylase inhibitors strongly arrest proliferation, induce apoptosis and modulate miRNAs in cancer cells” (Eur J Med Chem, 2023).
